Measured values: ChEMBL document CHEMBL1201862, “PubChem BioAssay data set” (2004)
“And” between values parts separate entries of the source, which are not always exact repeats. Identical values can stand only once.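 Method: 48-hour compound exposure of cells in 96-well plates, five concentrations, linear interpolation of endpoints. At the GI50, growth is halved.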 The source made the active and inactive calls. Cut-off read from the data, not from the text of the source: active = GI50 up to about 1.1 µM and inactive = higher.

What was measured:
Assay in all cases: NCI-60 cell line screen, 48 h
SF-268 = test system: SF-268
OVCAR-5 = test system: OVCAR-5
HCT-116 = test system: HCT-116
UACC-257 = test system: UACC-257
OVCAR-4 = test system: OVCAR-4
M14 = test system: M14
Malme-3M = test system: Malme-3M
OVCAR-3 = test system: OVCAR-3
HOP-62 = test system: HOP-62
TK-10 = test system: TK-10
SK-MEL-2 = test system: SK-MEL-2
SNB-75 = test system: SNB-75
RPMI-8226 = test system: RPMI-8226
BT-549 = test system: BT-549
CCRF-CEM = test system: CCRF-CEM
K562 = test system: K562
SNB-19 = test system: SNB-19
SK-MEL-5 = test system: SK-MEL-5
UACC-62 = test system: UACC-62
HOP-92 = test system: HOP-92

Measured: GI50

O=C1Oc2ccccc2C(=O)/C1=C/N1C(=O)N/C(=C\c2ccccc2O)C1=O
inactive: SF-268 > 81.1 µM | OVCAR-5 > 100 µM | HCT-116 36.6 µM | UACC-257 67.5 µM | OVCAR-4 55.3 µM | M14 66.4 µM | Malme-3M > 100 µM | OVCAR-3 32.7 µM | HOP-62 71.3 µM | TK-10 60.5 µM | SK-MEL-2 > 56.9 µM | SNB-75 > 78.5 µM | RPMI-8226 43 µM | BT-549 45.4 µM | CCRF-CEM > 100 µM | K562 54.7 µM | SNB-19 > 100 µM | SK-MEL-5 44.6 µM | UACC-62 36.9 µM | HOP-92 11 µM

O=C(/C=C\c1ccccc1)Oc1ccc(/C=C2\CCC/C(=C\c3ccc(OC(=O)/C=C\c4ccccc4)cc3)C2=O)cc1
inactive: SF-268 > 100 µM | OVCAR-5 > 100 µM | HCT-116 > 100 µM | UACC-257 > 100 µM | OVCAR-4 > 100 µM | M14 > 100 µM | OVCAR-3 > 100 µM | HOP-62 > 100 µM | TK-10 > 100 µM | SK-MEL-2 > 100 µM | SNB-75 56.5 µM | RPMI-8226 > 100 µM | BT-549 > 100 µM | CCRF-CEM > 100 µM | SNB-19 > 100 µM | SK-MEL-5 > 100 µM | UACC-62 > 100 µM | HOP-92 > 100 µM

Cc1cc2c(c(/C=N/Cc3ccccc3)c1)OC1(C=C2)Oc2ccccc2C(=O)N1C (configuration not stated)
inactive: SF-268 21.8 µM | OVCAR-5 21.4 µM | HCT-116 21 µM | UACC-257 25.8 µM | OVCAR-4 29.2 µM | M14 23.2 µM | OVCAR-3 37.4 µM | HOP-62 31.6 µM | TK-10 26 µM | SK-MEL-2 24.9 µM | SNB-75 16.4 µM | RPMI-8226 12.1 µM | BT-549 23.5 µM | CCRF-CEM 11.6 µM | K562 14.1 µM | SNB-19 31.6 µM | SK-MEL-5 19.9 µM | UACC-62 22.4 µM | HOP-92 17.5 µM

COc1nc(N)c(NC2OC(CO)C(O)C2O)c(=O)[nH]1 (configuration not stated)
inactive: SF-268 > 100 µM | OVCAR-5 > 100 µM | HCT-116 > 100 µM | UACC-257 > 100 µM | OVCAR-4 > 100 µM | M14 > 100 µM | Malme-3M > 100 µM and 75.5 µM | OVCAR-3 > 100 µM | HOP-62 > 100 µM | TK-10 > 100 µM | SK-MEL-2 > 100 µM | SNB-75 > 100 µM | RPMI-8226 > 100 µM | BT-549 > 100 µM | CCRF-CEM > 100 µM | K562 > 100 µM | SNB-19 > 100 µM | SK-MEL-5 > 100 µM | UACC-62 > 100 µM | HOP-92 > 100 µM

CCN(CC)P1(=S)Oc2ccc3ccccc3c2-c2c(ccc3ccccc23)O1
inactive: OVCAR-5 > 100 µM | HCT-116 83 µM | UACC-257 > 100 µM | OVCAR-4 99.3 µM | M14 > 100 µM | Malme-3M 72.8 µM | OVCAR-3 > 100 µM | HOP-62 > 100 µM | TK-10 > 100 µM | SK-MEL-2 > 100 µM | SNB-75 32.2 µM | RPMI-8226 > 100 µM | BT-549 > 100 µM | CCRF-CEM > 100 µM | K562 > 100 µM | SNB-19 > 100 µM | SK-MEL-5 > 100 µM | UACC-62 > 100 µM | HOP-92 > 100 µM

Cc1cc(NC(=O)NC(=O)c2ccccc2N)ccc1Oc1ncc(Br)cn1
active: SF-268 0.0163 µM | OVCAR-5 0.0396 µM | HCT-116 < 0.0124 µM | UACC-257 0.0655 µM | M14 0.0117 µM | Malme-3M < 0.01 µM | OVCAR-3 < 0.01 µM | HOP-62 0.0118 µM | TK-10 0.239 µM | SK-MEL-2 < 0.01 µM | SNB-75 0.0117 µM | RPMI-8226 0.025 µM | BT-549 < 0.01 µM | CCRF-CEM 0.0111 µM | K562 < 0.01 µM | SNB-19 < 0.0137 µM | SK-MEL-5 < 0.01 µM | UACC-62 0.0347 µM | HOP-92 0.0159 µM
inactive: OVCAR-4 4.78 µM

Cc1nc2sc3ccccc3n2c(=O)c1/N=N/c1ccc(Br)cc1
inactive: SF-268 70.5 µM | OVCAR-5 > 100 µM | HCT-116 > 100 µM | UACC-257 > 100 µM | OVCAR-4 71.3 µM | M14 > 100 µM | Malme-3M > 100 µM | OVCAR-3 > 100 µM | HOP-62 > 100 µM | TK-10 > 100 µM | SK-MEL-2 81.5 µM | SNB-75 > 100 µM | RPMI-8226 71.3 µM | BT-549 > 100 µM | CCRF-CEM 77.8 µM | K562 81.1 µM | SNB-19 > 100 µM | SK-MEL-5 > 100 µM | UACC-62 > 100 µM | HOP-92 76.4 µM

C/C=N\n1c(C)n[nH]c1=O
inactive: SF-268 > 100 µM | OVCAR-5 > 100 µM | HCT-116 > 100 µM | UACC-257 > 100 µM | OVCAR-4 > 100 µM | M14 > 100 µM | Malme-3M > 100 µM | OVCAR-3 > 100 µM | HOP-62 > 100 µM | TK-10 > 100 µM | SK-MEL-2 > 100 µM | SNB-75 > 100 µM | RPMI-8226 > 100 µM | BT-549 > 100 µM | CCRF-CEM > 100 µM | K562 > 100 µM | SNB-19 > 100 µM | SK-MEL-5 > 100 µM | UACC-62 > 100 µM | HOP-92 > 100 µM

COc1ccc2c3c1OC1c4[nH]c5ccccc5c4CC4(O)C(C2)N(C)CCC314 (configuration not stated)
inactive: SF-268 36.6 µM | OVCAR-5 71.6 µM | HCT-116 32.3 µM | UACC-257 17.3 µM | OVCAR-4 44.3 µM | M14 17.1 µM | OVCAR-3 42.3 µM | HOP-62 40.3 µM | TK-10 22.9 µM | SK-MEL-2 18.4 µM | SNB-75 29.3 µM | RPMI-8226 19.3 µM | BT-549 30.8 µM | CCRF-CEM 24.2 µM | K562 15.3 µM | SNB-19 32.4 µM | SK-MEL-5 15.2 µM | UACC-62 20.9 µM | HOP-92 14.3 µM

Cc1c(C)c2c(c(N)c1C#N)C(=O)N(N)C2=O
inactive: SF-268 > 100 µM | OVCAR-5 > 100 µM | HCT-116 84.9 µM | UACC-257 > 100 µM | OVCAR-4 > 100 µM | M14 > 100 µM | Malme-3M > 100 µM | OVCAR-3 > 100 µM | TK-10 > 100 µM | SK-MEL-2 > 100 µM | SNB-75 47 µM | RPMI-8226 > 100 µM | BT-549 > 100 µM | CCRF-CEM > 100 µM | K562 > 100 µM | SNB-19 > 100 µM | SK-MEL-5 > 100 µM | UACC-62 > 100 µM | HOP-92 > 100 µM

COc1ccc(CCNC(=O)Cc2ccccc2CO)cc1OC
inactive: SF-268 > 100 µM | OVCAR-5 > 100 µM | HCT-116 > 100 µM | UACC-257 > 100 µM | OVCAR-4 > 100 µM | M14 > 100 µM | OVCAR-3 > 100 µM | HOP-62 > 100 µM | TK-10 > 100 µM | SK-MEL-2 > 100 µM | SNB-75 > 100 µM | RPMI-8226 > 100 µM | BT-549 > 100 µM | CCRF-CEM > 100 µM | K562 > 100 µM | SK-MEL-5 > 100 µM | UACC-62 > 100 µM | HOP-92 > 100 µM

N#CC(C#N)[C@@H]1CCC=C(Sc2ccccc2)[C@H]1Sc1ccccc1
inactive: SF-268 5.62 µM | OVCAR-5 5.58 µM | HCT-116 2.11 µM | UACC-257 2.26 µM | OVCAR-4 4.6 µM | M14 1.96 µM | Malme-3M 2.42 µM | OVCAR-3 3.44 µM | HOP-62 3.2 µM | TK-10 1.86 µM | SK-MEL-2 3.07 µM | SNB-75 5.08 µM | RPMI-8226 2.28 µM | BT-549 3.23 µM | CCRF-CEM 1.57 µM | K562 2.36 µM | SNB-19 12.8 µM | SK-MEL-5 3.41 µM | UACC-62 3.56 µM | HOP-92 3.39 µM

O=C(Nc1ccccc1)c1cc2ccccc2c(/N=N/c2ccc([N+](=O)[O-])cc2)c1O
inactive: SF-268 > 100 µM | OVCAR-5 > 100 µM | HCT-116 > 100 µM | UACC-257 > 100 µM | OVCAR-4 > 100 µM | M14 > 100 µM | Malme-3M > 100 µM | OVCAR-3 70.1 µM | HOP-62 30.6 µM | TK-10 56.1 µM | SK-MEL-2 32.8 µM | SNB-75 73.5 µM | RPMI-8226 25.5 µM | BT-549 44.3 µM | CCRF-CEM 4.85 µM | K562 35.6 µM | SNB-19 59.6 µM | SK-MEL-5 > 100 µM | UACC-62 65.2 µM | HOP-92 99.3 µM

O=C(O)C1OC(n2cc(F)c(=O)[nH]c2=O)CC1O (configuration not stated)
inactive: SF-268 3.35 µM | OVCAR-5 > 100 µM | HCT-116 23.1 µM | UACC-257 > 100 µM | OVCAR-4 > 100 µM | M14 29.4 µM | Malme-3M > 100 µM | OVCAR-3 60.1 µM | HOP-62 5.22 µM | TK-10 > 100 µM | SK-MEL-2 > 100 µM | SNB-75 6.11 µM | RPMI-8226 61.7 µM | BT-549 99.1 µM | CCRF-CEM 3.44 µM | K562 > 86.1 µM | SNB-19 52.5 µM | SK-MEL-5 32.4 µM | UACC-62 6.15 µM | HOP-92 7.13 µM
